The source of these data is patent publication US8802826B2, “Anti-clusterin antibodies and antigen binding fragments and their use to reduce tumor volume” (Alethia Biotherapeutics Inc., priority 2009, dated 2014).

Experiment [1] relates to BRI-JM01 mouse mammary carcinoma cells. The experiment is described as follows: internalization of fluorescently labelled secreted clusterin. The class given is cell-based. Particulars: h16B5 10 μg/ml, labelled clusterin 250 ng/ml. On the procedure:
FIG. 13. Secreted clusterin is internalized in cancer cells. Recombinant human clusteirn was expressed in 293-6E cells, purified, and labelled with Alexa Fluor 488 using a commercial labelling kit (Invitrogen). BRI-JM01 mouse mammary carcinoma cells were seeded on coverslips and treated with 250 ng/ml of labelled secreted clusterin. At the indicated times, the cells were washed with ice-cold PBS and fixed in 2% paraformaledyhyde. The slides were mounted with Antifade Gold and images were generated with a fluorescence microscope.
FIG. 14. H16B5 inhibits the internalization of secreted clusterin in cancer cells. The experiment was performed as described for FIG. 13. H16B5 was added at 10 μg/ml.
In order to begin to address this question, cell-based experiments were undertaken to determine if secreted clusterin interacted with cancer cells directly or via other secreted factors in the cell medium. In order to measure this, secreted clusterin was fluorescently labelled and incubated with BRI-JM01 mouse mammary carcinoma cells. […] As shown, the internalization increases over time in manner that is consistent with a receptor-mediated endocytic pathway. Furthermore, the punctate and perinuclear pattern of staining that results after 24 hours (see white arrows in FIG. 13) that is often observed in proteins that are internalized along the endosomal pathway. […]

The subject of a further experiment is PANC-1 cells. Description: Transwell Matrigel migration of TGFβ-stimulated pancreatic cancer cells. The class given is cell-based, human. To be noted: 24 h incubation. On the procedure:
FIG. 12. H16B5 inhibits the migration of pancreatic cancer cell lines. PANC-1 cells were seeded in serum-free medium in the upper chamber of a 24-well Transwell plate containing a Matrigel barrier. The lower wells were filled with medium containing 10% FBS as a chemo-attractant. After a 24 h incubation in the presence or absence of TGFβ and/or h16B5 (as indicated), the number of cells in the Matrigel layer were stained and counted.
(§1) Tumors derived from 4 different human pancreatic cell lines were obtained which were fixed in formalin, embedded in paraffin, and section on glass slides. Immunohistochemistry was conducted with h16B5 antibody to determine if tumors derived from this cancer indication expressed clusterin. The tumors were derived from Aspc-1, BxPC-3, PANC-1, and MiaPaCa-2 all of which were derived from pancreatic cancer patients (ATCC, Manassas, Va.). Paraffin-embedded epithelial pancreatic tumor samples were placed on glass slides and fixed for 15 min at 50° C. Deparaffinization was conducted by treating 2× with xylene followed by dehydration in successive 5 min washes in 100%, 80%, and 70% ethanol. The slides were washed 2× in PBS for 5 min and treated with antigen retrieval solution (citrate-EDTA) to unmask the antigen. […] H16B5-reactive clusterin was detected by incubating with biotin-conjugated human anti-kappa followed by streptavidin-HRP tertiary antibody. […]

For a further experiment, the target named is T1, clusterin (Homo sapiens, UniProt P10909).
T1 construct: from tissue; host or cells: formalin-fixed, paraffin-embedded xenograft tumours of Aspc-1, BxPC-3, PANC-1 and MiaPaCa-2 cells grown in SCID mice
T1 sequence (P10909 23-449): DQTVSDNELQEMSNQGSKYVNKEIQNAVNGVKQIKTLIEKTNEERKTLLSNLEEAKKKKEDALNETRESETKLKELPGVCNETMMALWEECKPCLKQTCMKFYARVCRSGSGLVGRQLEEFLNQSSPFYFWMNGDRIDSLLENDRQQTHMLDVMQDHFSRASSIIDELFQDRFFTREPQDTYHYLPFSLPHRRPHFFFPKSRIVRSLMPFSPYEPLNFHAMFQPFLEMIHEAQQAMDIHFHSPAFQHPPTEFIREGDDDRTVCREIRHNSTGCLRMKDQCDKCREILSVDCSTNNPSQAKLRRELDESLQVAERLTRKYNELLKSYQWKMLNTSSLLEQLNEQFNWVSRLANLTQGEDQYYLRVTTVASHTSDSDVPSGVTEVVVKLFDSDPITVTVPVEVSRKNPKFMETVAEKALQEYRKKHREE
The experiment is described as follows: immunohistochemistry on tumors derived from human pancreatic cancer cell lines. The class given is binding. Particulars: 5 μg/ml, 1 h at room temperature. On the procedure: FIG. 11. Clusterin is expressed in human pancreatic tumors. Tumors derived from pancreatic cancer cell lines (as indicated) were grown in SCID mice, harvested, fixed in formalin, sections and examined using immunohistochemistry with h16B5. Positive staining was visualized by standard methods using a HRP-conjugated secondary antibody. The negative control was performed under identical conditions with an isotype control antibody.
as §1

The target in a further experiment is T2, murine clusterin (Mus musculus, UniProt Q06890).
T2 construct: murine clusterin that was expressed in BR1-JM01 cells; endogenous in cells; host or cells: BR1-JM01 mouse mammary carcinoma cells
T2 sequence (Q06890 22-448): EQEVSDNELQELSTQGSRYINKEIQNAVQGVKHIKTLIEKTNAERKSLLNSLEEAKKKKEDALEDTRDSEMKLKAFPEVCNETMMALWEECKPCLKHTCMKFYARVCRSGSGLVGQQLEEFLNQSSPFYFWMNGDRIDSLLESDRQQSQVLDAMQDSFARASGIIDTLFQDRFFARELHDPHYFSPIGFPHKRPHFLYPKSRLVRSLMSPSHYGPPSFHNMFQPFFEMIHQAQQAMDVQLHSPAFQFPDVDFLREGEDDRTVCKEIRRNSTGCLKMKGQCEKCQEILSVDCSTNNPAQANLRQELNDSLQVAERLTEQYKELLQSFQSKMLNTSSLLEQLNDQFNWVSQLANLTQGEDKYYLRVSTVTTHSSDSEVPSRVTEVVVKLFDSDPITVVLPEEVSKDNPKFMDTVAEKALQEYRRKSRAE
Description: immunohistochemistry on frozen sections of 4T1 mouse mammary tumors. The class given is binding. To be noted: 5 μg/ml, 1 h. On the procedure:
FIG. 16. […] The experiment was performed using immunohistochemistry and detection was accomplished using a HRP-conjugated secondary antibody.
Briefly, the frozen sections were fixed with ice-cold acetone for 10 minutes and non-specific binding was blocked with a reagent supplied in a commercially available kit (Dako Canada, Inc., Burlington, ON). H16B5 was incubated with the mouse tumor section for 1 h at a concentration of 5 μg/ml. […] A control sample was processed in an identical manner with a human isotype control IgG.

For the substance “h16B5: humanized anti-clusterin IgG2 antibody, heavy chain SEQ ID NO.:9 and light chain SEQ ID NO.:10”, the “internalization of secreted clusterin into JM01 cells” value in experiment [1] is “blocked”. The “migration of TGFβ-stimulated cells into the Matrigel” value in the experiment on PANC-1 cells is on record as “severely inhibited”. Also, the “staining for clusterin expression in Aspc-1, BxPC-3, PANC-1 and MiaPaCa-2 derived tumors” value with clusterin is “stained positive”. For the same substance, the “detection of murine clusterin in 4T1 tumors” value with murine clusterin is reported as “detected murine clusterin”.
